Columns and labels:
A/H1N1 virus = assay: microbe, parasite or virus in culture; assay type: cell-based, influenza A virus; settings: Influenza A virus, H1N1, MDCK, read-out: IC50 baloxavir (active form)
[1] = tested on: A/H1N1 I38T (I38T mutation on the PA subunit, baloxavir-resistant); assay type: cell-based, influenza A virus
[2] = tested on: influenza virus with M431I substitution in PB2; settings: cited from earlier work

## O=C1c2c(O)c(=O)ccn2N([C@@H]2c3ccccc3SCc3c2ccc(F)c3F)[C@@H]2COCCN12 [baloxavir, baloxavir acid]
A/H1N1 virus
  IC50: 0.2 nM

## COc1ccc([C@@H]2Sc3ccccc3N(CCN(C)C)C(=O)[C@@H]2OC(C)=O)cc1.Cl [diltiazem]
[1]
  transepithelial resistance (TEER), integrity of infected epithelia: remain stable

## O=C(O)[C@H]1C2CCC(CC2)[C@@H]1Nc1nc(-c2c[nH]c3ncc(F)cc23)ncc1F [pimodivir]
[2]
  decrease in sensitivity: around 60 fold

From patent US12440498B2 (priority 2020, dated 2025)
